In patent US6960614B2, “Oxygenated esters of 4-lodo phenylamino benzhydroxamic acids” (Warner-Lambert Company, priority 2000, dated 2005):
pIC50: −log10 of the molar value.

Test system: MEK
Assay: Cellular Assay for Measuring MEK Inhibition (inhibition of ERK phosphorylation in C26 cells, Western blot)
Format: cell-based, murine
Conditions: for % Inhibition @ 0.1 μM / % Inhibition @ 1 μM / % Inhibition @ 10 μM: ERK phosphorylation in C26 cells; for pIC50: inhibition of ERK phosphorylation in murine colon 26 (C26) carcinoma cells, determined graphically from dose response curve
Method: The evaluation of the compounds as MEK inhibitors was performed in an assay that measures their ability to inhibit phosphorylation of MAP kinase […]) in murine colon 26 (C26) carcinoma cells. Since ERK1 and ERK2 represent the only known substrates for MEK, measurement of inhibition of ERK phosphorylation in cells provides direct readout of cellular MEK inhibition by the compounds of the invention. Briefly, the assay involves treating exponentially growing C26 cells with varying concentrations of the test compound (or vehicle control) for […] at 37° C. Cells are then rinsed free of compound/vehicle and lysed in a solution containing 70 mM NaCl, 50 mM glycerol phosphate, 10 mM HEPES, pH 7.4, 1% Triton X-100, 1 mM Na3VO4, 100 μM PMSF, 10 μM leupeptin and 10 μM pepstatin. Supernatants are then subjected to gel electrophoresis and Western blotting using a primary antibody recognizing dually phosphorylated ERK1 and ERK2. To evaluate total MAPK levels, blots were subsequently ‘stripped’ and re-probed with a 1:1 mixture of polyclonal antibodies recognizing unphosphorylated ERK1 and ERK2.

Row | Compound | % Inhibition @ 0.1 μM | % Inhibition @ 1 μM | pIC50 | % Inhibition @ 10 μM
1 | COCCONC(=O)c1cc(F)c(F)c(F)c1Nc1ccc(I)cc1C [Example 138, 3,4,5-Trifluoro-2-(4-iodo-2-methyl-phenylamino)-N-(2-methoxy-ethoxy)-benzamide] | 0% | 19.6% | – | –
2 | O=C(NOCC1(CO)CC1)c1ccc(F)c(F)c1Nc1ccc(Br)cc1F [Example 223, 2-(4-Bromo-2-fluoro-phenylamino)-3,4-difluoro-N-(1-hydroxymethyl-cyclopropylmethoxy)-benzamide] | 5.2% | 56.7% | – | –
3 | COCC(O)CONC(=O)c1ccc(F)c(F)c1Nc1ccc(Cl)cc1F (stereo not drawn) [Example 229, 2-(4-Chloro-2-fluoro-phenylamino)-3,4-difluoro-N-(2-hydroxy-3-methoxy-propoxy)-benzamide] | 9.8% | 76.5% | – | –
4 | CC(CO)ONC(=O)c1cc(F)c(F)cc1Nc1ccc(I)cc1F (stereo not drawn) [Example 131, 4,5-Difluoro-2-(2-fluoro-4-iodo-phenylamino)-N-(2-hydroxy-1-methyl-ethoxy)-benzamide] | 78.7% | 91.3% | – | –
5 | O=C(NOCCC(O)CO)c1cc(Br)c(F)c(F)c1Nc1ccc(I)cc1Cl (stereo not drawn) [Example 94, 5-Bromo-2-(2-chloro-4-iodo-phenylamino)-N-(3,4-dihydroxy-butoxy)-3,4-difluoro-benzamide] | – | – | 6.55 | –
6 | CC(C)(O)CONC(=O)c1cc(Br)c(F)c(F)c1Nc1ccc(I)cc1F [Example 178, 5-Bromo-3,4-difluoro-2-(2-fluoro-4-iodo-phenylamino)-N-(2-hydroxy-2-methyl-propoxy)-benzamide] | 61.8% | 94.9% | – | –
7 | O=C(NOCC1CC1CO)c1ccc(F)c(F)c1Nc1ccc(Cl)cc1F (stereo not drawn) [Example 216, 2-(4-Chloro-2-fluoro-phenylamino)-3,4-difluoro-N-(2-hydroxymethyl-cyclopropylmethoxy)-benzamide] | 41.2% | 87.6% | – | –
8 | COCCONC(=O)c1cc(Cl)c(F)c(F)c1Nc1ccc(I)cc1F [Example 142, 5-Chloro-3,4-difluoro-2-(2-fluoro-4-iodo-phenylamino)-N-(2-methoxy-ethoxy)-benzamide] | 31% | 91.4% | – | –
9 | COCC(O)CONC(=O)c1ccc(F)c(F)c1Nc1ccc(Br)cc1F (stereo not drawn) [Example 228, 2-(4-Bromo-2-fluoro-phenylamino)-3,4-difluoro-N-(2-hydroxy-3-methoxy-propoxy)-benzamide] | 48.6% | 92.4% | – | –
10 | CC(C)(O)CONC(=O)c1cc(Br)c(F)c(F)c1Nc1ccc(I)cc1Cl [Example 173, 5-Bromo-2-(2-chloro-4-iodo-phenylamino)-3,4-difluoro-N-(2-hydroxy-2-methyl-propoxy)-benzamide] | – | – | 6.52 | –
11 | Cc1cc(I)ccc1Nc1cc(F)ccc1C(=O)NOCCO [Example 5, 4-Fluoro-N-(2-hydroxy-ethoxy)-2-(4-iodo-2-methyl-phenylamino)-benzamide] | – | – | 8.52 | –
12 | COCCOCCONC(=O)c1cc(Br)c(F)c(F)c1Nc1ccc(I)cc1C [Example 206, 5-Bromo-3,4-difluoro-2-(4-iodo-2-methyl-phenylamino)-N-[2-(2-methoxy-ethoxy)-ethoxy]-benzamide] | – | – | 6.85 | –
13 | Cc1cc(I)ccc1Nc1c(C(=O)NOCC(C)O)cc(Cl)c(F)c1F (stereo not drawn) [Example 163, 5-Chloro-3,4-difluoro-N-(2-hydroxy-propoxy)-2-(4-iodo-2-methyl-phenylamino)-benzamide] | 88.9% | 95.1% | – | –
14 | CC(C)(O)CONC(=O)c1ccc(F)c(F)c1Nc1ccc(I)cc1F [Example 177, 3,4-Difluoro-2-(2-fluoro-4-iodo-phenylamino)-N-(2-hydroxy-2-methyl-propoxy)-benzamide] | 91.6% | 95.7% | – | –
15 | O=C(NOCC(O)CO)c1cc(Br)c(F)c(F)c1Nc1ccc(I)cc1F (stereo not drawn) [Example 40, 5-Bromo-N-(2,3-dihydroxy-propoxy)-3,4-difluoro-2-(2-fluoro-4-iodo-phenylamino)-benzamide] | – | – | 8.85 | –
16 | CCC(O)CONC(=O)c1cc(F)c(F)c(F)c1Nc1ccc(I)cc1Cl (stereo not drawn) [Example 105, 2-(2-Chloro-4-iodo-phenylamino)-3,4,5-trifluoro-N-(2-hydroxy-butoxy)-benzamide] | 3.3% | 71.3% | – | –
17 | COCC(O)CONC(=O)c1ccc(F)c(F)c1Nc1ccc(F)cc1F (stereo not drawn) [Example 226, 2-(2,4-Difluoro-phenylamino)-3,4-difluoro-N-(2-hydroxy-3-methoxy-propoxy)-benzamide] | – | 41.5% | – | 84.1%

Row | Compound | % Inhibition @ 0.1 μM | % Inhibition @ 1 μM | pIC50 | % Inhibition @ 10 μM
18 | CC(O)CONC(=O)c1cc(Cl)c(F)c(F)c1Nc1ccc(I)cc1Cl (stereo not drawn) [Example 161, 5-Chloro-2-(2-chloro-4-iodo-phenylamino)-3,4-difluoro-N-(2-hydroxy-propoxy)-benzamide] | – | – | 7.82 | –
19 | O=C(NOCC(O)CN1CCOCC1)c1cc(Cl)c(F)c(F)c1Nc1ccc(F)cc1F (stereo not drawn) [Example 154, 5-Chloro-2-(2,4-difluoro-phenylamino)-3,4-difluoro-N-(2-hydroxy-3-morpholin-4-yl-propoxy)-benzamide] | – | 8.9% | – | 51%
20 | Cc1cc(I)ccc1Nc1c(C(=O)NOCCC(O)CO)cc(F)c(F)c1F (stereo not drawn) [Example 96, N-(3,4-Dihydroxy-butoxy)-3,4,5-trifluoro-2-(4-iodo-2-methyl-phenylamino)-benzamide] | 35% | 87.1% | – | –
21 | O=C(NOCC(O)CN1CCOCC1)c1cc(Cl)c(F)c(F)c1Nc1ccc(I)cc1F (stereo not drawn) [Example 152, 5-Chloro-3,4-difluoro-2-(2-fluoro-4-iodo-phenylamino)-N-(2-hydroxy-3-morpholin-4-yl-propoxy)-benzamide] | 59.2% | 90.3% | – | –
22 | O=C(NOCCCO)c1ccc(F)c(F)c1Nc1ccc(I)cc1Cl [Example 99, 2-(2-Chloro-4-iodo-phenylamino)-3,4-difluoro-N-(3-hydroxy-propoxy)-benzamide] | – | – | 7.74 | –
23 | Cc1cc(I)ccc1Nc1c(C(=O)NOC(C)CO)cc(Cl)c(F)c1F (stereo not drawn) [Example 119, 5-Chloro-3,4-difluoro-N-(2-hydroxy-1-methyl-ethoxy)-2-(4-iodo-2-methyl-phenylamino)-benzamide] | 87.4% | 97.9% | – | –
24 | CC(C)(CO)CONC(=O)c1cc(Cl)c(F)c(F)c1Nc1ccc(I)cc1Cl [Example 200, 5-Chloro-2-(2-chloro-4-iodo-phenylamino)-3,4-difluoro-N-(3-hydroxy-2,2-dimethyl-propoxy)-benzamide] | – | – | 6.52 | –
25 | O=C(NOCCCO)c1cc(F)c(F)c(F)c1Nc1ccc(I)cc1Cl [Example 101, 2-(2-Chloro-4-iodo-phenylamino)-3,4,5-trifluoro-N-(3-hydroxy-propoxy)-benzamide] | – | – | 6.65 | –
26 | O=C(NOCC1CC1CO)c1cc(F)c(F)cc1Nc1ccc(I)cc1F (stereo not drawn) [Example 217, 4,5-Difluoro-2-(2-fluoro-4-iodo-phenylamino)-N-(2-hydroxymethyl-cyclopropylmethoxy)-benzamide] | 26.9% | 93.1% | – | –
27 | O=C(NOCCNc1ccccc1)c1cc(F)c(F)c(F)c1Nc1ccc(I)cc1Cl [Example 233, 2-(2-Chloro-4-iodo-phenylamino)-3,4,5-trifluoro-N-(2-phenylamino-ethoxy)-benzamide] | – | – | 7.48 | –
28 | CC(CO)ONC(=O)c1cc(Cl)c(F)c(F)c1Nc1ccc(I)cc1F (stereo not drawn) [Example 130, 5-Chloro-3,4-difluoro-2-(2-fluoro-4-iodo-phenylamino)-N-(2-hydroxy-1-methyl-ethoxy)-benzamide] | – | – | 8.40 | –
29 | Cc1cc(I)ccc1Nc1c(C(=O)NOCC(C)(C)CO)ccc(F)c1F [Example 197, 3,4-Difluoro-N-(3-hydroxy-2,2-dimethyl-propoxy)-2-(4-iodo-2-methyl-phenylamino)-benzamide] | – | – | 7.29 | –
30 | CC(C)(O)CONC(=O)c1ccc(F)c(F)c1Nc1ccc(Br)cc1F [Example 182, 2-(4-Bromo-2-fluoro-phenylamino)-3,4-difluoro-N-(2-hydroxy-2-methyl-propoxy)-benzamide] | 13.1% | 81.9% | – | –
31 | Cc1cc(I)ccc1Nc1c(C(=O)NOCC(C)(C)CO)cc(F)c(F)c1F [Example 199, 3,4,5-Trifluoro-N-(3-hydroxy-2,2-dimethyl-propoxy)-2-(4-iodo-2-methyl-phenylamino)-benzamide] | – | – | 7.00 | –
32 | CCC(O)CONC(=O)c1cc(Br)c(F)c(F)c1Nc1ccc(I)cc1F (stereo not drawn) [Example 113, 5-Bromo-3,4-difluoro-2-(2-fluoro-4-iodo-phenylamino)-N-(2-hydroxy-butoxy)-benzamide] | 89.9% | 94.6% | – | –
33 | O=C(NOCCNc1ccccc1)c1ccc(F)c(F)c1Nc1ccc(I)cc1Cl [Example 77, 2-(2-Chloro-4-iodo-phenylamino)-3,4-difluoro-N-(2-phenylamino-ethoxy)-benzamide] | – | – | 6.62 | –
34 | CCC(O)CONC(=O)c1cc(Cl)c(F)c(F)c1Nc1ccc(I)cc1F (stereo not drawn) [Example 114, 5-Chloro-3,4-difluoro-2-(2-fluoro-4-iodo-phenylamino)-N-(2-hydroxy-butoxy)-benzamide] | 90.5% | 97.3% | – | –
